The test system of test [1] is diabetic nephropathy-induced animals. The experiment in a line: Diabetic nephropathy model in ZDF rats (Experimental Example 2). The format is in vivo, Zucker diabetic fatty (ZDF) rats. The note with it: 250 mg/kg oral. The text has this: When the blood glucose level is elevated, glucose in the blood partially binds to hemoglobin in red blood cells, producing glycosylated hemoglobin (termed HbAlc). When glycosylated hemoglobin is formed, the corresponding red blood cells will retain HbAlc until the red blood cells complete their lives to be destroyed. […] The HbAlc reflect a blood glucose value over a relatively long period of time, so the measurement of the HbAlc level may be a useful indicator of how well diabetes has been therapeutically controlled over the past several months.
An increase in the rate of excretion of albumin in the urine is the most preceding clinical finding in diabetic nephropathy. Therefore, an increased level of urine albumin is an indicator of renal or hepatic diseases.
8-week-old male Zucker diabetic fatty (ZDF) rats (Charles River Laboratory) were divided into four groups as given in Table 2 below: Vehicle, MB660 (250 mg/kg), Pair-fed, and Rosi (6 mg/kg). Animals were orally given test samples.
Diabetic nephropathy model animals were fed with a low-fat feed (11.9 kcal % fat, 5053, Labdiet). Animals with a blood glucose level of 300 mg/dl and a body weight (BW) of more than 300 g were selected and treated with test samples for 4 and 8 weeks, respectively (total 12 and 16 weeks old). In-vivo changes in glycosylated hemoglobin (HbAlc), urine albumin and urine protein (1,000× urine albumin/urine creatinine) associated with kidney diseases were observed. Albumin was measured using an immunoturbidimetric assay, and creatinine was measured using a Jaffe rate method.

Test [2] concerns acute renal failure-induced animals. The experiment in a line: Acute renal failure induced by ischaemia/reperfusion injury in rats (Experimental Example 1). The test is classed as in vivo, Sprague-Dawley rats. The text has this: Creatine is non-enzymatically converted into creatinine that is a waste product of muscle energy metabolism. Creatinine is a waste by-product and is therefore filtered by the kidney, but not reabsorbed. Since the muscle mass is generally maintained at a constant level and is less susceptible to other organs except for the kidney, a serum creatinine level is a good marker of the glomerular filtration rate. A higher creatinine concentration reflects more significant impairment of renal function. For example, a two-fold increase of the creatinine level represents a 50% decrease of the glomerular filtration rate.
Accumulation of toxic ammonia in the body is prevented in a manner that ammonia is produced by deamination of amino acids during a protein metabolic process and is then converted into urea in the liver. When excretory function of the kidney is compromised, the blood urea nitrogen level is elevated. Therefore, measurement of BUN is an important indicator to examine whether the kidney is normally functional or not. When the BUN level is elevated over a normal value, the subject is suspected to have acute nephritis, chronic nephritis, prostate hyperplasia or the like. When the BUN level is dropped below a normal value, the subject is suspected to have diabetes insipidus, muscular dystrophy or the like.
Among compounds of Formula 1, effects of 7,8-dihydro-2,2-dimethyl-2H-naphtho(2,3-b)dihydropyran-7,8-dione (hereinafter, referred to as “compound of Example 1”) on acute renal failure were examined. For this purpose, 6-week-old male Sprague-Dawley rats, weighing 200 to 220 g (Japan SLC, Inc., Japan) were divided into two groups as given in Table 1 below: a vehicle-treated control group and a group received the compound of Example 1 (200 mg/kg). Animals were given test samples by the oral route. […]
Following the IR induction, 0.2 mL of serum was sampled from each animal on +1 day, +3 day and +5 day, respectively. Creatinine and BUN (blood urea nitrogen) levels were measured with an automatic biochemical analyzer (HITACHI, 7020).

The structures appear in SMILES notation.

Take `CC1(C)CCC2=C(O1)c1ccccc1C(=O)C2=O` [Example 1, 7,8-dihydro-2,2-dimethyl-2H-naphtho(2,3-b)dihydropyran-7,8-dione]: the “glycosylated hemoglobin (HbAlc)” value in test [1] (treated 4 and 8 weeks (FIG. 3)) is recorded as “significantly low”. For the same compound, the urine albumin level result in test [1] (treated 4 and 8 weeks, compared with Rosiglitazone 6 mg/kg group (FIG. 5)) is given as “lower”. The “daily urine protein level (1000× urine albumin/urine creatinine)” value in test [1] (treated 4 and 8 weeks, compared with Rosiglitazone 6 mg/kg group (FIG. 6)) is “lower”. The left kidney weight result in test [1] (treated 4 and 8 weeks, vs diabetic nephropathy-induced control group (FIG. 4)) is “significant decrease”. In test [2] (200 mg/kg oral for two weeks before IR induction, serum on +1, +3, +5 day, vs control group, most prominent after 3 days of reperfusion (FIG. 1)), the serum creatinine level entry was “significantly decreased”. Moreover, in test [2] (200 mg/kg oral for two weeks before IR induction, serum on +1, +3, +5 day, vs control group, most remarkable after 3 days of reperfusion (FIG. 2)), the “serum BUN (blood urea nitrogen) level” value is on record as “significant reduction”. Moreover, in test [2] (200 mg/kg oral, inferred from serum creatinine and BUN results), the glomerular filtration rate result is listed as “elevation”.

The values above are taken from patent publication US20130302422A1, “PHARMACEUTICAL COMPOSITION FOR TREATMENT AND PREVENTION OF KIDNEY DISEASES” (KT & G CORPORATION, priority 2007, published 2013).
